{
  "source": "patent US20240023806A1",
  "about": "“METHOD FOR SELF-DIAGNOSIS AND METHOD FOR SELF-TREATMENT OF POSTERIOR SEGMENT EYE DISEASE” (priority 2022, published 2024)",
  "key": {"[1]": {"system": "inflammatory vitreous opacity due to endotoxin-induced uveitis", "experiment": "Endotoxin-induced uveitis (EIU) rabbit model: clinical grading of inflammatory vitreous opacity after DEX injection into the choroid through a tube", "type": "in vivo", "settings": "day 2 after intravitreal LPS 100 ng; DEX solution 100 μg/100 μL injected into the choroid through the tube; 4 eyes; p<0.05 vs control (LPS only)", "method": "(§1) In order to investigate the effectiveness of the method for self-treatment of posterior segment eye disease according to an aspect of the present invention, whether the injection of dexamethasone (DEX) into the choroid through a tube suppresses inflammatory vitreous opacity due to endotoxin-induced uveitis was examined in a rabbit model.\nAll experiments were conducted in accordance with ARVO Statement for the Use of Animals in Ophthalmic and Vision Research and the Guidelines for Experimental Animals at Iwate Medical University. Three-month-old Japanese white rabbits (purchased from KITAYAMALABES CO., LTD.) weighing 2 to 2.5 kg were used. […]\nAfter the tube insertion, endotoxin-induced uveitis (HU) was induced in 8 rabbits (8 eyes) by lipopolysaccharide (LPS) derived from Escherichia coli (manufactured by Sigma-Aldrich Co. LLC). […] Since maximal inflammatory symptoms were seen 2 days after injection, inflammatory vitreous opacity was evaluated 2 days after injection by ophthalmological observation and vitreous humor protein measurement. The amount of DEX injected was entered into the application and the amount of DEX was determined on the computer. The data on the quantity of DEX was then transmitted to a wireless injector (“Tofuty”, manufactured by ICOMES LAB Co., Ltd.). […]"}, "[2]": {"system": "inflammatory vitreous opacity due to endotoxin-induced uveitis", "experiment": "Endotoxin-induced uveitis (EIU) rabbit model: vitreous humor protein measurement", "type": "in vivo", "settings": "day 2 after intravitreal LPS 100 ng; DEX solution 100 μg/100 μL injected into the choroid through the tube; 4 eyes; p<0.05 vs control (LPS only)", "source_text": "as §1\nAfter the tube insertion, endotoxin-induced uveitis (HU) was induced in 8 rabbits (8 eyes) by lipopolysaccharide (LPS) derived from Escherichia coli (manufactured by Sigma-Aldrich Co. LLC). 100 ng of LPS solution was injected into the vitreous body using a 27G needle at a 12 o'clock position, 3 mm posterior to the corneal limbus. […] Since maximal inflammatory symptoms were seen 2 days after injection, inflammatory vitreous opacity was evaluated 2 days after injection by ophthalmological observation and vitreous humor protein measurement. The amount of DEX injected was entered into the application and the amount of DEX was determined on the computer. The data on the quantity of DEX was then transmitted to a wireless injector (“Tofuty”, manufactured by ICOMES LAB Co., Ltd.). […]\nFor protein measurements, four eyes in each group were used on day 2 after procedure. […] The protein content of vitreous humor was determined using a Bio-Rad assay kit with bovine serum albumin as a standard-dilution reference curve. […]"}},
  "data": [
    {"smiles": "C[C@@H]1C[C@H]2[C@@H]3CCC4=CC(=O)C=C[C@]4(C)[C@@]3(F)[C@@H](O)C[C@]2(C)[C@@]1(O)C(=O)CO", "note": "[DEX, dexamethasone]", "values": [
      {"measurement": "Clinical grading of vitreous opacity (grade 0 to 4)", "setting": "[1]", "result": "0.75±0.96"},
      {"measurement": "Protein concentration in vitreous humor", "setting": "[2]", "result": "20.5 ± 15.0", "unit": "mg/mL"}
    ]}
  ]
}
